Broadly, the EC50 is the concentration that produces a half-maximal response.

Read-outs that look alike come from different tables or passages of the source.

Common to all, as to format: cell-based
One experiment has as its system Colo-205 cells. Briefly: Calcium flux assay (FLIPR Calcium 5). The note with it: FLIPR Calcium 5, measured over 36 minutes. Here is the method: Compounds described herein induced ER stress by causing intracellular calcium flux. Calcium flux was measured in Colo-205 cells using the FLTPR® Calcium 5 Assay Kit according to manufacter's protocol (Molecular Devices, Cat. #R8186) on a FLIPR3 system (Molecular Devices). Calcium flux is measured over 36 minutes. The Colo-205 calcium flux assay data are summarized in Table 47: A<0.6 μM; 0.6 μM≤B<2.0 μM; 2.0 μM≤C<10.0 μM; D≥10.0 μM.
A general note: Calcium flux is commonly read through the fluorescence of an indicator in the cells.

Another experiment concerns HepG2 parental. Put plainly: In vitro cell viability (CellTiter-Glo), HepG2 parental. The note with it: 96 hours. The procedure:
(§1) HEK293 cells containing empty pCLPCx vector (HEK293 empty), HEK293 cells stably over-expression WFS1 (HEK293 WFS1), HepG2, and HepG2 cells where WFS1 was depleted via CRISPR/Cas9 (HepG2 WFS1 KO) cells were plated into 96-well black plates (Corning, product #3904) in 100 microliters of complete DMEM cell culture media [DMEM (Life Technologies, product #11960-051) media supplemented with 10% FBS (Hyclone, catalog #SH30071.03), antimycotic/antibiotic (Life Technologies, product #15240-062), and Glutamax (Life Technologies, product #35050-061)] at 1,000 (HEK293) or 5,000 (HepG2) cells per well. Cells were allowed to attach and grow overnight, after which compounds are added at various concentrations. Cell viability was assessed 96 hrs after compound addition with CellTiter-Glo reagent (Promega, catalog #G7570) according to manufacturer's protocol and measurement on a Pherastar luminescence plate reader (BMG Labtech).
To determine the effect of WFS1 depletion on compound mediated inhibition of cell viability, parental HepG2 cells and HepG2 cells where WFS1 was deleted by CRISPR/Cas9 were exposed to increasing concentrations of either Compound 136 or Compound 253 for 96 hours after which time viability was determined using Cell Titer Glo reagent (Promega). […] The IC50s for the viability of both the HepG2 parental and WFS1 knockout cells are summarized in Table 47: A<0.5 μM; 0.5 μM≤<2.0 μM; 2.0 μM≤C<10.0 μM; D≥[…].
(In general: In ATP-based viability assays light output follows the ATP content of the culture.)

The subject of experiment [1] is Hek293 WFS1 over-expressor. Briefly: In vitro cell viability (CellTiter-Glo), Hek293 WFS1 over-expressor. The procedure:
WFS1 cDNA is amplified from clone RC202901 (Origene Technologies) with primers 5′-TCCGCGGCCCCAAGCTTATCGCCATGGACTCCAACACTGC-3′ (SEQ ID NO: 1), 5′-GATGGGCCCAGATCTCGAGTCAGGCCGCCGACAGGAATG-3′ (SEQ ID NO: 2) and cloned into a retroviral mammalian expression vector pCLPCX using HD Infusion (CLONTECH) at Hind3-Xhol sites using standard procedures. The resulting clone is identified as pCLPCX_WFS1.
HEK293 (ATCC, catalog #CRL-1573) cells are plated in 10 cm dishes (Corning, product #430167) into 10 mL of complete DMEM cell culture media [DMEM (Life Technologies, product #11960-051) media supplemented with 10% FBS (Hyclone, catalog #SH30071.03), antimycotic/antibiotic (Life Technologies, product #15240-062), and Glutamax (Life Technologies, product #35050-061)] at 3×10^6 cells per dish. Cells are allowed to attach and grow overnight at 37° C. in humidified 5% CO2. Cells are co-transfected with pVSV-G, pCMV-Gag/Pol and pCLPCX_WFS1 using Fugene 6 (Promega, catalog #E2691) according to manufacturer's protocol. Separately, cells are co-transfected with pVSV-G, pCMV-Gag/Pol and pCLPCX to produce control retrovirus. Cell culture media containing retrovirus (viral supernatant) is collected at 48 and 72 hours following transfection, filtered through a 0.4 uM filter, and stored at −80° C.
HEK293 cells are plated in 6 well plates (Corning, product #3516) in 2 mL of complete DMEM cell culture media at 1×10^5 cells well and allowed to attach and grow overnight at 37° C. in humidified 5% CO2. The following day, the media is replaced with viral supernatant to which 10 ug/ml of Polybrene® (Santa Cruz Biotech, catalog #sc-134220) is added. Viral supernatant is replaced 24 hours later with complete DMEM media. Transduced cells are selected in complete DMEM cell culture media containing 1 microgram/mL of puromycin (Life Technologies, catalog #A1113803).
as §1
The IC50s for the viability of both the Hek293 empty vector and WFS1 over-expressing cells are summarized in Table 47: A<0.06 μM; 0.06 μM≤B<0.6 μM; 0.6 μM≤C<3.0 μM; D≥3.0 μM.

The next experiment concerns HepG2 XBP1(u)-Luc cells. Put plainly: HepG2 XBP1 reporter assay. The settings on record: 6 h. The gist of the method: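 Reporter cells are HepG2 stably carrying unspliced XBP1 fused to firefly luciferase, which becomes in-frame after IRE1alpha-mediated splicing. SteadyGlo luminescence was normalized to DMSO-treated cells for IC50 calculation.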
Setting [2] is: Homo sapiens, read-out: HepG2 viability.
[3] abbreviates: Homo sapiens, HEK293, Hek293 WFS1 over-expressing cells, read-out: Hek293 WFS1 viability.
Where [4] appears, read: Hek293 WFS1 over-expressing cells, read-out: Hek293 WFS1 viability.

Turning to `Cc1nc(NCc2cnn(Cc3ccc(F)cc3)c2)nc2c1N(C)C(=O)[C@H](C)N2C` [Compound 1, (7S)-2-(((1-(4-fluorobenzyl)-1H-pyrazol-4-yl)methyl)amino)-4,5,7,8-tetramethyl-7,8-dihydropteridin-6(5H)-one], the EC50 in the experiment with Colo-205 cells (Homo sapiens, COLO 205, 0.6 h) is under 600 nM. Also, the IC50 in the experiment on HepG2 parental (setting [2]) was under 500 nM; in experiment [1] (setting [3]) it was under 60 nM.

Regarding “(7S)-4,7,8-trimethyl-2-((trans-3-(3,4-difluorophenoxy)cyclobutyl)amino)-7,8-dihydropteridin-6(5H)-one [Compound 251]”, the EC50 with Colo-205 cells is 600 to 2000 nM. The IC50 with HepG2 parental (read-out: HepG2 viability) is at least 10000 nM; in experiment [1] (setting [4]), 60 to 600 nM.

For `Cc1nc(N[C@H]2C[C@H](Oc3cc(F)c(F)c(F)c3)C2)nc2c1N(C)C(=O)[C@H](C)N2C` [Compound 253, (7S)-4,5,7,8-tetramethyl-2-((trans-3-(3,4,5-trifluorophenoxy)cyclobutyl)amino)-7,8-dihydropteridin-6(5H)-one], the EC50 in the experiment with Colo-205 cells (Homo sapiens, COLO 205, 0.6 h) was under 600 nM. Moreover, the IC50 in the experiment with HepG2 parental (setting [2]) was 500 to 2000 nM; with HepG2 parental (Homo sapiens, cell viability, Cell Titer Glo, read-out: IC50) it was 640 nM; in the experiment on HepG2 parental (Homo sapiens, cell viability, read-out: IC50 class) it was 500 to 2000 nM; in experiment [1] (setting [3]) it was under 60 nM; in experiment [1] (Homo sapiens, HEK293, cell viability, Hek293 WFS1 over-expressor, read-out: IC50), 12 nM; in experiment [1] (Homo sapiens, HEK293, cell viability, Hek293 WFS1 over-expressor, read-out: IC50 class) it was under 60 nM. For the same compound, the “reduction in the IC50 on over-expression of WFS1 in Hek293 cells” value in experiment [1] (cell viability, WFS1 over-expressor vs empty vector) was over 1000 fold.

Consider `Cc1ccc(Cn2cc(CNc3nc(C)c4c(n3)N(C)[C@@H](C)C(=O)N4)cn2)cn1` [Compound 173, (7S)-4,7,8-trimethyl-2-(((1-((6-methylpyridin-3-yl)methyl)-1H-pyrazol-4-yl)methyl)amino)-7,8-dihydropteridin-6(5H)-one], for which the IC50 in the experiment with HepG2 XBP1(u)-Luc cells (Homo sapiens) lay in the range of 2000 to 10000 nM; in experiment [1] (setting [3]), 60 to 600 nM. The EC50 in the experiment on Colo-205 cells (Homo sapiens, COLO 205, 0.6 h) fell in the range of 2000 to 10000 nM.

Consider `Cc1nc(NCc2cnn(Cc3cc(F)c(F)c(F)c3)c2)nc2c1NC(=O)[C@H](C)N2C` [Compound 122, (7S)-4,7,8-trimethyl-2-(((1-(3,4,5-trifluorobenzyl)-1H-pyrazol-4-yl)methyl)amino)-7,8-dihydropteridin-6(5H)-one], for which the IC50 in the experiment with HepG2 XBP1(u)-Luc cells (Homo sapiens) was under 600 nM; in experiment [1] (setting [3]), under 60 nM. The EC50 in the experiment with Colo-205 cells (Homo sapiens, COLO 205, 0.6 h) was under 600 nM.

Take `Cc1nc(NCc2cnn(Cc3ccc(C(F)(F)F)nc3C(C)C)c2)nc2c1NC(=O)[C@H](C)N2C` [Compound 388, (7S)-2-(((1-((2-isopropyl-6-(trifluoromethyl)pyridin-3-yl)methyl)-1H-pyrazol-4-yl)methyl)amino)-4,7,8-trimethyl-7,8-dihydropteridin-6(5H)-one]: the IC50 was under 600 nM with HepG2 XBP1(u)-Luc cells (Homo sapiens) and under 60 nM in experiment [1] (setting [3]). For the same compound, in the experiment with Colo-205 cells (Homo sapiens, COLO 205, 0.6 h), the EC50 was under 600 nM.

On to `Cc1nc(NCc2ccc(-n3cc(C(F)(F)F)cn3)nc2)nc2c1NC(=O)[C@H](C)N2C` [Compound 143, (S)-4,7,8-trimethyl-2-(((6-(4-(trifluoromethyl)-1H-pyrazol-1-yl)pyridin-3-yl)methyl)amino)-7,8-dihydropteridin-6(5H)-one], for which the IC50 fell in the range of 2000 to 10000 nM in the experiment with HepG2 XBP1(u)-Luc cells (Homo sapiens) and 60 to 600 nM in experiment [1] (setting [3]). In addition, the EC50 in the experiment with Colo-205 cells (Homo sapiens, COLO 205, 0.6 h) was 2000 to 10000 nM.

For the compound `CCN1c2nc(NCc3cnn(Cc4ccc(C(F)(F)F)nc4)c3)nc(C)c2NC(=O)[C@@H]1C` [Compound 395, (7S)-8-Ethyl-4,7-dimethyl-2-(((1-((6-(trifluoromethyl)pyridin-3-yl)methyl)-1H-pyrazol-4-yl)methyl)amino)-7,8-dihydropteridin-6(5H)-one], the results for the IC50 (in the experiment with HepG2 XBP1(u)-Luc cells (Homo sapiens); in experiment [1] (setting [3])) were 600 to 2000 nM and under 60 nM, respectively. Besides, the EC50 in the experiment with Colo-205 cells (Homo sapiens, COLO 205, 0.6 h) is 600 to 2000 nM.

In the case of `Cc1cc(F)ncc1Cn1cc(CNc2nc(C)c3c(n2)N(C)[C@@H](C)C(=O)N3)cn1` [Compound 94, (7S)-2-(((1-((6-fluoro-4-methylpyridin-3-yl)methyl)-1H-pyrazol-4-yl)methyl)amino)-4,7,8-trimethyl-7,8-dihydropteridin-6(5H)-one], the results for the IC50 (in the experiment on HepG2 XBP1(u)-Luc cells (Homo sapiens); in experiment [1] (setting [3])) were 600 to 2000 nM and under 60 nM, respectively. Besides, in the experiment on Colo-205 cells (Homo sapiens, COLO 205, 0.6 h), the EC50 was in the range of 600 to 2000 nM.

As to `Cc1nc(NCc2cnn([C@@H]3C[C@@H]3c3ccc(F)cc3)c2)nc2c1NC(=O)[C@H](C)N2C` [Compound 154, (7S)-2-(((1-((1R,2R)-2-(4-fluorophenyl)cyclopropyl)-1H-pyrazol-4-yl)methyl)amino)-4,7,8-trimethyl-7,8-dihydropteridin-6(5H)-one], the IC50 was under 600 nM in the experiment on HepG2 XBP1(u)-Luc cells (Homo sapiens) and under 60 nM in experiment [1] (setting [3]). The EC50 in the experiment with Colo-205 cells (Homo sapiens, COLO 205, 0.6 h) was under 600 nM.

With `Cc1nc(NCc2cnn(Cc3ccc(C(F)(F)F)nc3)c2)nc2c1NC(=O)[C@H](C)N2C(C)C` [Compound 385, (7S)-8-isopropyl-4,7-dimethyl-2-(((1-((6-(trifluoromethyl)pyridin-3-yl)methyl)-1H-pyrazol-4-yl)methyl)amino)-7,8-dihydropteridin-6(5H)-one], the figures for the IC50 (in the experiment on HepG2 XBP1(u)-Luc cells (Homo sapiens); in experiment [1] (setting [3])) were under 600 nM and under 60 nM, respectively. In addition, the EC50 in the experiment on Colo-205 cells (Homo sapiens, COLO 205, 0.6 h) lay in the range of 600 to 2000 nM.

Take `Cc1nc(N[C@H]2CC[C@H](Oc3ccc(C(F)(F)F)nc3)C2)nc2c1NC(=O)[C@H](C)N2C` (single isomer, unassigned) [Compound 377]: the IC50 in the experiment with HepG2 XBP1(u)-Luc cells was 600 to 2000 nM; in experiment [1] (setting [4]) it was under 60 nM. In the experiment with Colo-205 cells, the EC50 is under 600 nM.

As for `CC[C@H]1C(=O)Nc2c(C)nc(NCc3cnn(Cc4ccc(C(F)(F)F)nc4)c3)nc2N1C` [Compound 186, (7S)-7-ethyl-4,8-dimethyl-2-(((1-((6-(trifluoromethyl)pyridin-3-yl)methyl)-1H-pyrazol-4-yl)methyl)amino)-7,8-dihydropteridin-6(5H)-one], the IC50 was under 600 nM in the experiment with HepG2 XBP1(u)-Luc cells (Homo sapiens) and under 60 nM in experiment [1] (setting [3]). In addition, the EC50 in the experiment on Colo-205 cells (Homo sapiens, COLO 205, 0.6 h) is 600 to 2000 nM.

With `Cc1nc(NCc2cnn([C@@H](C)c3ccc(C(F)(F)F)nc3)c2)nc2c1NC(=O)[C@H](C)N2C` [Compound 174, (7S)-4,7,8-Trimethyl-2-(((1-((S)-1-(6-(trifluoromethyl)pyridin-3-yl)ethyl)-1H-pyrazol-4-yl)methyl)amino)-7,8-dihydropteridin-6(5H)-one], the IC50 in the experiment with HepG2 XBP1(u)-Luc cells (Homo sapiens) is 600 to 2000 nM; in experiment [1] (setting [3]), under 60 nM. Also, the EC50 with Colo-205 cells (Homo sapiens, COLO 205, 0.6 h) fell in the range of 600 to 2000 nM.

As for `Cc1nc(N[C@H]2C[C@H](Oc3ccc(C(F)(F)F)nc3)C2)nc2c1NC(=O)[C@H](C)N2C` [Compound 324, (7S)-4,7,8-trimethyl-2-((trans-3-((6-(trifluoromethyl)pyridin-3-yl)oxy)cyclobutyl)amino)-7,8-dihydropteridin-6(5H)-one], the figures for the IC50 (in the experiment on HepG2 XBP1(u)-Luc cells (Homo sapiens); in experiment [1] (setting [3])) were under 600 nM and under 60 nM, respectively. The EC50 with Colo-205 cells (Homo sapiens, COLO 205, 0.6 h) was under 600 nM.

Source of the values: US20230312587A1, “PTERIDINONE COMPOUNDS AND USES THEREOF” (Vertex Pharmaceutical Incorporated, priority 2018, published 2023).
